Source: US20140235518A1, “AQUEOUS LIQUIDS CONTAINING AN ORGANIC COMPOUND AND AN N-(2-HYDROXYALKYL) SUBSTITUTED N-ALKYLAMINE” (TAMINCO, priority 2011, published 2014)

How the values were obtained:
[1] = Interfacial tension by drop weight measurements; type: physicochemical; details: 22° C.
Experimental: Drop weight measurements (i.e., the weight of a drop of one fluid as it is carefully released into another immiscible fluid) were used to evaluate the air/liquid and liquid/liquid interfacial tensions of 5% BDEA(aq) (butyldiethanolamine with C/OH ratio of 4), 5% HBHEEA(aq) (hydroxybutyl hydroxyethyl ethylamine with C/OH ratio of 4) and 2% HBHEBA(aq) (hydroxybutyl hydroxyethyl butylamine with C/OH ratio of 5) solutions at RT (22° C.). Note that a solution of 2% wt/wt of HBHEBA in water takes several minutes to form. About 1% wt/wt of HBHEBA dissolves in water fairly rapidly with stirring, while up to approximately 3% wt/wt can eventually be dissolved if stirring is continued for a longer period of time. The following relationship (oftentimes referred to as Tate's law) is used to relate drop weight to the interfacial tension between the drop fluid and the fluid being “dropped” into:
γ=mactual(1−ρfluid/ρdrop)g/(2πr)
Drop weights were taken 10 at a time and averaged. Three replicates of the drop average were taken to insure accuracy. […] The Table below contains drop weight data of some aqueous AAA solutions as dropped into air and into decane (ρ=0.73 g/ml):
The data for DI water dropped into air is used to standardize the pipette. The surface tension of water/air at 22° C. and 1 bar absolute P is 72 dynes/cm.
Using this value in the equation for DI water gives an orifice radius of 1.2 mm (0.12 cm). All of the measurements were carried out with the same pipette. Using the value of 1.2 mm as the radius of the pipette orifice allows for accurate calculation of the unknown interfacial tensions. Both BDEA and HBHEEA have the same MW and the same total C/OH ratio of 4, but both molecules display distinct interfacial tension properties. […] AAA's of identical total C/OH ratio and identical MW but with differing distribution of hydrophobic and hydrophilic regions display unique properties with respect to solubility, viscosity, volatility, impact on emulsion stability, and assistance to biostability.

[2] = test system: microbial population of spoiled coolant; assay: Biostability comparison, soluble oil emulsion diluted in spoiled coolant (CFU by oxygen pressure); type: cell-based; details: diluted 20 to 1 in spoiled coolant water
Experimental: (§1) The 100 ml test solutions were initially challenged with 10 ml of a lab maintained rancid soluble oil containing 50% tramp oil with an overall biological count of 8,800,000 CFU/ml. The degree of biological growth throughout the experiment was measured by the HMB-IV (Biotech International, Needville, Tex.) method for determination of the aerobic and facultative biological activity within a liquid metalworking fluid sample. This test method is based on the principle that most of the microorganisms in challenged metalworking fluids produce catalase while they are active. The addition of a known amount of a formulated HMB-IV oxidizing agent (hydrogen peroxide, buffer and chelating chemicals) to a standard volume of the sample fluid in a sealed test tube allows for an amount of oxygen proportional to the amount of active bacteria to be produced via the chemical reaction between active catalase enzyme and the hydrogen peroxide. A calibrated device is used to measure the amount of oxygen that is produced via the change in the pressure of the headspace within a test tube over a period of 15 minutes.
A challenge test comparison of the following soluble oil emulsion was carried out over several days.
The above concentrate formula was used with either 3 or 5 parts of one of the test amines. The soluble oil concentrate was diluted 20 to 1 in stagnant water made up from spoiled coolant (cultured from an original stock of rancid metalworking coolant used in a ferrous alloy cutting operation) which was in turn prepared by diluting 10% of a 60,000,000 CFU per ml of stock spoiled coolant with 90% tap water that had been allowed to air out for 24 hours. The challenge solution, which in this experiment is a control, was calculated to initially contain 6,000,000 CFU per ml microbial population. By the next day, the microbial content of the challenge solution had increased to 13,000,000 CFU per ml. By the end of the trial, the microbial content of the challenge solution had declined to 7,400,000 CFU. The concentration of microbes was determined by oxygen pressure development as described in Example 4.

[3] = Comparative emulsion stability (p-terphenyl oil / 20% aqueous AAA); type: physicochemical; details: 10 g p-terphenyl oil + 10 g 20% wt/wt aqueous AAA, 10 s vortex
Description: The emulsion prepared with aqueous N-butyldiethanolamine (BDEA, C/OH ratio=4) was compared to an otherwise identical emulsion prepared with 20% aqueous N-(2-hydroxybutyl)-N-(2-hydroxyethyl)-N-ethylamine (HBHEEA, C/OH ratio=4).

[4] = Condition of challenged test solutions (pH, putrification odor, appearance); details: formula with 4.97% amine at 4% aqueous dilution
Experimental: (§2) The biostability of three fluids containing different amines was assessed in a challenge test format. The three amines used were DCHA (dicyclohexylamine), DBAE (dibutylaminoethanol) and HBHEBA (hydroxybutyl hydroxyethyl butylamine). The test solutions were approximately 100 ml in volume and maintained at RT. The following formula was used at 4% aqueous dilution for testing:
(§3) The second challenge at 3 days was 20 ml of a rancid semi-synthetic coolant with a CFU/ml reading of 10,000,000. A volume of 20 ml was necessary to bring the volume back to the original 100 ml (each CFU/ml measurement removes 10 ml of coolant). The third challenge at 10 days was an additional 20 ml of the 10,000,000 CFU/ml rancid semi-synthetic coolant.

[5] = test system: microorganisms in challenged metalworking fluids; assay: Challenge with amines as sole biostabilizing agent (HMB-IV catalase/oxygen pressure CFU); type: cell-based; details: formula with 4.97% amine at 4% aqueous dilution; for CFU one hour after first challenge: CFU/ml
Experimental: as §2
as §1, with “The addition of a known amount of a formulated HMB-IV oxidizing agent (hydrogen peroxide, buffer and chelating chemicals) to a standard volume of the sample fluid in a sealed test tube allows for an amount of oxygen proportional to the amount of active bacteria to be produced via the chemical reaction between active catalase enzyme and the hydrogen peroxide.” left out
as §3

[6] = Dissolution of HBHEBA in water; type: physicochemical; details: RT
Experimental: Drop weight measurements (i.e., the weight of a drop of one fluid as it is carefully released into another immiscible fluid) were used to evaluate the air/liquid and liquid/liquid interfacial tensions of 5% BDEA(aq) (butyldiethanolamine with C/OH ratio of 4), 5% HBHEEA(aq) (hydroxybutyl hydroxyethyl ethylamine with C/OH ratio of 4) and 2% HBHEBA(aq) (hydroxybutyl hydroxyethyl butylamine with C/OH ratio of 5) solutions at RT (22° C.). Note that a solution of 2% wt/wt of HBHEBA in water takes several minutes to form. About 1% wt/wt of HBHEBA dissolves in water fairly rapidly with stirring, while up to approximately 3% wt/wt can eventually be dissolved if stirring is continued for a longer period of time. The following relationship (oftentimes referred to as Tate's law) is used to relate drop weight to the interfacial tension between the drop fluid and the fluid being “dropped” into: […]

[7] = 5% (aq) solution dropped into Air
[8] = 5% (aq) solution dropped into Decane
[9] = AAA @ 3% in concentrate (1500 ppm diluted)
[10] = AAA @ 5% in concentrate (2500 ppm diluted)

| SMILES | γ Drop to Fluid (air/liquid interfacial tension) [1, 7] [dynes/cm] | γ Drop to Fluid (liquid/liquid interfacial tension) [1, 8] [dynes/cm] | CFU per ml after 1 day [2, 9] [CFU per ml × 10^6] | CFU per ml after 4 days [2, 9] [CFU per ml × 10^6] | CFU per ml after 1 day [2, 10] [CFU per ml × 10^6] | CFU per ml after 4 days [2, 10] [CFU per ml × 10^6] | pH of test solution @ 25 days [4] | pH of test solution @ 90 days [4] | pH of test solution after first challenge [4] | CFU @ 3 days (2nd challenge) [5] | CFU @ 7 days (4 days after 2nd challenge) [5] | CFU @ 10 days (3rd challenge) [5] | CFU @ 14 days (4 days after 3rd challenge) [5] | CFU @ 25 days (7 days after fresh dilution) [5] | CFU @ 90 days (60 day idle period simulation) [5] | CFU one hour after first challenge [5] | other results |
| --- | --- | --- | --- | --- | --- | --- | --- | --- | --- | --- | --- | --- | --- | --- | --- | --- | --- |
| CCCCN(CCO)CCO [BDEA, N-butyldiethanolamine] | 41 | 13 | 11 | 9.0 | 3.5 | 2.1 | – | – | – | – | – | – | – | – | – | – | Time to complete phase separation of emulsion [3]: ≤ 30 min; Time to significant oil coalescence of emulsion [3]: ≤ 15 min |
| CCCCN(CCO)CCCC [DBAE, N,N-dibutylaminoethanol] | – | – | – | – | – | – | 8.2 | 7.7 | 9.4 | 310,000 CFU | 2,100,000 CFU | 4,000,000 CFU | 2,500,000 CFU | 2,900,000 CFU | 8,100,000 CFU | 740,000 CFU | – |
| CCCCN(CCO)CC(O)CC (stereo not shown) [HBHEBA, N-(2-hydroxybutyl)-N-(2-hydroxyethyl)-N-butylamine] | – | – | 7.3 | 5.0 | 3.0 | 1.2 | 8.2 | 7.6 | 9.1 | 140,000 CFU | 3,300,000 CFU | 4,500,000 CFU | 2,900,000 CFU | 1,700,000 CFU | 7,700,000 CFU | 610,000 CFU | γ Drop to Fluid (air/liquid interfacial tension) ([1]; 2% (aq) solution dropped into Air): 34 dynes/cm; γ Drop to Fluid (liquid/liquid interfacial tension) ([1]; 2% (aq) solution dropped into Decane): 8 dynes/cm; Amount that can eventually be dissolved in water ([6]; stirring continued for a longer period of time): approximately 3 % wt/wt; Amount dissolving in water fairly rapidly ([6]; with stirring): About 1 % wt/wt |
| CCC(O)CN(CC)CCO (stereo not shown) [HBHEEA, N-(2-hydroxybutyl)-N-(2-hydroxyethyl)-ethylamine] | 37 | 17 | – | – | – | – | – | – | – | – | – | – | – | – | – | – | Emulsion stability (visual) [3]: remained completely opaque with no visible signs of coalescence for several hours |
| C1CCC(NC2CCCCC2)CC1 [DCHA, dicyclohexylamine] | – | – | – | – | – | – | 8.2 | 7.7 | 9.1 | 410,000 CFU | 3,000,000 CFU | 3,900,000 CFU | 3,900,000 CFU | 4,000,000 CFU | 33,000,000 CFU | 630,000 CFU | – |
